From patent US20200268702A1, “METHODS OF TREATING […]” (Amarin Pharmaceuticals Ireland Limited, priority 2013, published 2020)

Tested on: patients with fasting triglyceride levels >500 mg/dL
Assay: MARINE study: 12-week placebo-controlled study of AMR101, metabolic syndrome subset
Type: in vivo, human
Settings: 12 weeks, subjects with metabolic syndrome
Procedure: A multi-center, placebo-controlled randomized, double-blind, 12-week study with an open-label extension was performed to evaluate the efficacy and safety of AMR101 in patients with fasting triglyceride levels >500 mg/dL. The primary objective of the study was to determine the efficacy of AMR101 2 g daily and 4 g daily, compared to placebo, in lowering fasting TG levels in patients with fasting TG levels 500 mg/dL and 1500 mg/dL (5.65 mmol/L and 16.94 mmol/L).
The population for this study was men and women (women of childbearing potential will need to be on contraception or practice abstinence) >18 years of age with a body mass index ≤45 kg/m^2 who were not on lipid-altering therapy or were currently on lipid-altering therapy. Patients currently on statin therapy (with or without ezetimibe) were evaluated by the investigator as to whether this therapy can be safely discontinued at screening, or if it should be continued. If statin therapy (with or without ezetimibe) was to be continued, dose(s) must have been stable […] prior to randomization. Patients taking non-statin, lipid-altering medications (niacin >200 mg/day, fibrates, fish oil, other products containing omega-3 fatty acids, or other herbal products or dietary supplements with potential lipid-altering effects), either alone or in combination with statin therapy (with or without ezetimibe), must have been able to safely discontinue non-statin, lipid-altering therapy at screening.
Approximately 240 patients were randomized at approximately 50 centers in North America, South America, Central America, Europe, India, and South Africa. The study was a 58- to 60-week, Phase 3, multi-center study consisting of 3 study periods: (1) A 6- to 8-week screening period that included a diet and lifestyle stabilization and washout period and a TG qualifying period; (2) A 12-week, double-blind, randomized, placebo-controlled treatment period; and (3) A 40-week, open-label, extension period.
After confirmation of qualifying fasting TG values, eligible patients entered a 12-week, randomized, double-blind treatment period. At Visit 4 (Week 0), patients were randomly assigned to 1 of the following treatment groups: • AMR101 2 g daily, • AMR101 4 g daily, or • Placebo.
Eligible patients were randomly assigned at Visit 4 (Week 0) to receive orally AMR101 2 g daily, AMR101 4 g daily, or placebo for the 12-week double-blind treatment period. AMR101 was provided in 1 g liquid-filled, oblong, gelatin capsules. The matching placebo capsule was filled with light liquid paraffin and contained 0 g of AMR101. During the double-blind treatment period, patients took 2 capsules (AMR101 or matching placebo) in the morning and 2 in the evening for a total of 4 capsules per day. Patients in the AMR101 2 g/day treatment group received 1 AMR101 1 g capsule and 1 matching placebo capsule in the morning and in the evening. Patients in the AMR101 4 g/day treatment group received 2 AMR101 1 g capsules in the morning and evening.
The primary efficacy variable for the double-blind treatment period was percent change in TG from baseline to Week 12 endpoint. […]

## CC/C=C\C/C=C\C/C=C\C/C=C\C/C=C\CCCC(=O)OCC [AMR101, ethyl eicosapentaenoate]
2 g/day, No statins
  Apo B, Change from Baseline, %: 2.8%
  Apo B, End of Treatment, median (IQR): 121 mg/dL
  Apo B, Median % Change From Baseline vs Placebo: −1.8%
  HDL-C, Change from Baseline, %: 0.0%
  HDL-C, End of Treatment, median (IQR): 26 mg/dL
  HDL-C, Median % Change From Baseline vs Placebo: 0.3%
  LDL-C, Change from Baseline, %: 1.9%
  LDL-C, End of Treatment, median (IQR): 95 mg/dL
  LDL-C, Median % Change From Baseline vs Placebo: 2.8%
  Non-HDL-C, Change from Baseline, %: −1.1%
  Non-HDL-C, End of Treatment, median (IQR): 218 mg/dL
  Non-HDL-C, Median % Change From Baseline vs Placebo: −7.8%
  TG, Change from Baseline, %: −10.1%
  TG, End of Treatment, median (IQR): 586 mg/dL
  TG, Median % Change From Baseline vs Placebo: −17.2%
  hsCRP, Change from Baseline, %: 38.0%
  hsCRP, End of Treatment, median (IQR): 2.5 (3.10) mg/L
  hsCRP, Median % Change From Baseline vs Placebo: −7.1%
2 g/day, Statins
  Apo B, Change from Baseline, %: −0.9%
  Apo B, End of Treatment, median (IQR): 105 mg/dL
  Apo B, Median % Change From Baseline vs Placebo: −9.1%
  HDL-C, Change from Baseline, %: 0.0%
  HDL-C, End of Treatment, median (IQR): 30 mg/dL
  HDL-C, Median % Change From Baseline vs Placebo: 4.2%
  LDL-C, Change from Baseline, %: −3.8%
  LDL-C, End of Treatment, median (IQR): 77.5 mg/dL
  LDL-C, Median % Change From Baseline vs Placebo: 6.2%
  Non-HDL-C, Change from Baseline, %: 10.1%
  Non-HDL-C, End of Treatment, median (IQR): 206 mg/dL
  Non-HDL-C, Median % Change From Baseline vs Placebo: −10.9%
  TG, Change from Baseline, %: 14.5%
  TG, End of Treatment, median (IQR): 708 mg/dL
  TG, Median % Change From Baseline vs Placebo: −33.0%
  hsCRP, Change from Baseline, %: 14.3%
  hsCRP, End of Treatment, median (IQR): 1.6 (2.20) mg/L
  hsCRP, Median % Change From Baseline vs Placebo: −36.6%
2 g/day, Total
  Apo B, Change from Baseline, %: 2.5%
  Apo B, End of Treatment, median (IQR): 117 mg/dL
  Apo B, Median % Change From Baseline vs Placebo: −3.3%
  HDL-C, Change from Baseline, %: 0.0%
  HDL-C, End of Treatment, median (IQR): 28 mg/dL
  HDL-C, Median % Change From Baseline vs Placebo: 0.9%
  LDL-C, Change from Baseline, %: −2.5%
  LDL-C, End of Treatment, median (IQR): 94 mg/dL
  LDL-C, Median % Change From Baseline vs Placebo: 3.6%
  Non-HDL-C, Change from Baseline, %: 0.0%
  Non-HDL-C, End of Treatment, median (IQR): 214 mg/dL
  Non-HDL-C, Median % Change From Baseline vs Placebo: −8.3%
  TG, Change from Baseline, %: −4.3%
  TG, End of Treatment, median (IQR): 606 mg/dL
  TG, Median % Change From Baseline vs Placebo: −19.1%
  hsCRP, Change from Baseline, %: 25.1%
  hsCRP, End of Treatment, median (IQR): 2.4 (3.20) mg/L
  hsCRP, Median % Change From Baseline vs Placebo: −14.5%
4 g/day, No statins
  Apo B, Change from Baseline, %: −4.3%
